Earlier results in patent publication US20250049023A1, “FUNGICIDAL COMPOSITIONS” (SYNGENTA CROP PROTECTION AG, priority 2021, published 2025).

Test system: Mycosphaerella graminicola (Septoria tritici)
Conditions: as disclosed in prior filings

## COc1ccnc(C(=O)N[C@@H](C)C(=O)O[C@@H](C)C(c2ccc(F)cc2)c2ccc(F)cc2)c1OC(C)=O [Florylpicoxamid, (1S)-2,2-bis(4-fluorophenyl)-1-methylethyl N-{[3-(acetyloxy)-4-methoxy-2-pyridyl]carbonyl}-L-alaninate]
  control of wheat leaf blotch disease (in words): particularly effective
